The text below walks through data of patent publication US4677105A, “2-alkoxycarbonylalkyl-3-oxo-5,6-diaryl-as-triazines having utility as therapeutics” (PF Medicament, priority 1985, dated 1987).

Molecules are shown by their SMILES. Read-outs that look alike come from different tables or passages of the source.

The nature of one data set: solubility. The data set is classed as physicochemical. The settings on record: in words.
For data set [1], the system named is phenyl benzoquinone contortion. The data set is described as follows: phenyl benzoquinone contortion test (analgesic properties). The data set is classed as in vivo, mouse. As to conditions: 0.5 h. On the procedure: The activity in the phenyl benzoquinone contortion test of […] et al., J. Pharm. Exptl. […] Dose expressed in mg/kg in the mouse, 30 minutes before intraperitoneal injection of the algogenic agent. The results are expressed in percentage variation of the number of contortions.

The nature of data set [2]: analgesic activity, test not specified. The data set is classed as in vivo. The settings on record: in words.
[3] abbreviates: mouse, oral, 30 minutes before intraperitoneal injection of the algogenic agent, read-out: ED50.

In the case of `CCOC(=O)Cn1nc(-c2ccc(OC)cc2)c(-c2ccc(OC)cc2)nc1=O` [Example 1, 2-ethoxy carbonyl-methyl-3-oxo-5,6-di(paramethoxyphenyl)-as-triazine], in the data set “solubility”, the “solubility (insoluble in)” value was “Insoluble in water, dilute bases and acids”; the “solubility (soluble in)” value was “Soluble in methylene chloride, chloroform, ether; alcohols and hot benzene”.

Consider `CCOC(=O)C(C)n1nc(-c2ccccc2)c(-c2ccccc2)nc1=O` (centres unmarked) [Example 7, 2-(1-ethoxycarbonyl-1-ethyl)-3-oxo-5,6-di (phenyl)-as-triazine], for which the ED50 (as a rule, the dose at which the effect has come halfway, by size or by number of responders) in data set [1] (setting [3]) amounted to 18 mg/kg. For the same molecule, the analgesic activity entry in data set [2] is “effective analgesic agent”.

In the case of `CCOC(=O)C(CC)n1nc(-c2ccc(OC)cc2)c(-c2ccc(OC)cc2)nc1=O` (centres unmarked) [Example 4, 2-(1-ethoxycarbonyl-1-propyl)-3-oxo-5,6-di(paramethoxyphenyl)-as-triazine], in data set [1] (setting [3]), the ED50 is 11 mg/kg. In the data set “solubility”, the “solubility (insoluble in)” value is “Insoluble in water, dilute bases and acids, ether”; the “solubility (soluble in)” value is reported as “Soluble in hot alcohols, benzene, methylene chloride, chloroform”.

On to `CCOC(=O)C(C)n1nc(-c2ccc(OC)cc2)c(-c2ccc(OC)cc2)nc1=O` (centres unmarked) [Example 3, 2-(1-ethoxycarbonyl-1-ethyl)-3-oxo-5,6-di(paramethoxyphenyl)-as-triazine], for which the ED50 in data set [1] (setting [3]) turned out to be 13 mg/kg. For the same molecule, in the data set “solubility”, the “solubility (insoluble in)” value is “Insoluble in water, dilute bases and acids”; the “solubility (soluble in)” value was “Soluble in hot alcohols, benzene, chloroform, methylene chloride and ether”.

In turn, `CC(=O)Oc1ccccc1C(=O)O` [Aspirin, reference compound] registered an ED50 in data set [1] (Mus musculus, po) of 100 mg/kg.

In the case of `COC(=O)C(C)n1nc(-c2ccc(OC)cc2)c(-c2ccc(OC)cc2)nc1=O` (centres unmarked) [Example 6, 2-(1-methoxycarbonylethyl)-3-oxo-5,6-di(paramethoxyphenyl)-as-triazine], the ED50 in data set [1] (setting [3]) was determined as 12 mg/kg. Further, in “solubility”, the “solubility (insoluble in)” value is “Insoluble: Water, ether” and the “solubility (soluble in)” value is reported as “Soluble in hot alcohols”.

Regarding `CCOC(=O)C(C)n1nc(-c2ccc(OC)cc2)c(-c2ccc(Cl)cc2)nc1=O` (centres unmarked) [Example 10, 2-(1-ethoxycarbonyl-1-ethyl)-3-oxo-5,6-(p-chloro-p-methoxy)-5,6-as-triazine], in data set [1] (setting [3]), the ED50 was determined as 12 mg/kg. Besides, in data set [2], the analgesic activity result was “effective analgesic agent”.

In the case of `CCOC(=O)C(C)n1nc(-c2ccc(Cl)cc2)c(-c2ccc(Cl)cc2)nc1=O` (centres unmarked) [Example 9, 2-(1-ethoxycarbonyl-1-ethyl)-3-oxo-5,6-di (p-chlorophenyl)-as-triazine], in data set [1] (setting [3]), the ED50 turned out to be 10 mg/kg. Moreover, the analgesic activity entry in data set [2] was “effective analgesic agent”.

With `CCOC(=O)C(C)n1nc(-c2ccc(C)cc2)c(-c2ccc(C)cc2)nc1=O` (centres unmarked) [Example 8, 2-(1-ethoxycarbonyl-1-ethyl)-3-oxo-5,6-di(p-methylphenyl)-as-triazine], the ED50 in data set [1] (setting [3]) turned out to be 12 mg/kg. The analgesic activity entry in data set [2] was “effective analgesic agent”.

`CCCC(C(=O)OCC)n1nc(-c2ccc(OC)cc2)c(-c2ccc(OC)cc2)nc1=O` (centres unmarked) [Example 5, 2-(1-ethoxycarbonyl-1-butyl)-3-oxo-5,6-di(paramethoxyphenyl)-as-triazine]: the ED50 in data set [1] (setting [3]) came to 16 mg/kg. Moreover, in the data set “solubility”, the “solubility (insoluble in)” value was “Insoluble in water, dilute bases and acids”; the “solubility (soluble in)” value was “Soluble in hot alcohols, benzene, methylene chloride, chloroform, ether”.

For `CCOC(=O)C(C)n1nc(-c2ccc(O)cc2)c(-c2ccc(O)cc2)nc1=O` (centres unmarked) [Example 2, 2-(1-ethoxycarbonyl-1-ethyl)-3-oxo-5,6-di(parahydroxyphenyl)-as-triazine], in the data set “solubility”, the “solubility (insoluble in)” value is “Insoluble in water, dilute bases and acids, benzene, chloroform, methylene chloride, ether”; the “solubility (soluble in)” value is listed as “Soluble in hot alcohols”.

In the case of `O=C(OCC(O)CO)c1ccccc1Nc1ccnc2cc(Cl)ccc12` (centres unmarked) [Glaphenine, reference compound], the ED50 in data set [1] (setting [3]) was 35 mg/kg.
